The text below walks through data of patent US20080113918A1, “AGONIST POLYPEPTIDE OF RECEPTOR FOR ZOT AND ZONULIN” (University of Maryland - Baltimore, priority 2003, published 2008).

No end group written: not given here.

One data set concerns PAR-2. Put plainly: FZI/0-PAR-2 AP competitive binding in Caco2 cells. Set-up: species or system human. Here is the method:
FIGS. 4A-4D. FZI/0-PAR-2 AP competitive binding experiments.
FZI/0-PAR-2 AP competitive binding experiments. The activation of PAR-2 requires binding of either its tryptase-generated, cleaved N-terminal portion or the synthetic peptide equivalent, PAR-2 AP, to the receptor's extracellular loop 2 (ECL2) (47). To establish whether FZI/0 binds to the same receptor domain, competitive binding experiments were conducted in Caco2 cells. Cell monolayers were incubated with FITC-FZI/0 (2×10^−8M)) either in the presence of an excess of PAR-2 AP (10^−6M) or a scrambled peptide and then analyzed by fluorescence microscopy.

The test system of the next data set is Caco2 cell monolayers. Description: PAR-2 AP-induced actin rearrangement in Caco2 cell monolayers. Type of data set: cell-based, human. The conditions noted are these: 10^−6M PAR-2 AP, Caco2, vs BSA. From the text: FIGS. 5A to 5D. Actin cytoskeleton arrangement in Caco2 cells exposed to PAR2-AP (FIG. 5A), BSA (FIG. 5B), PAR2-AP+FZI/0 (FIG. 5C), or PAR-2 AP+FZI/1 (FIG. 5D).
Effect of the Zot/zonulin inhibitor FZI/0 on PAR-2 AP-induced actin rearrangement. It has been recently reported that activation of PAR-2 receptor by PAR-2 AP promotes cytoskeletal reorganization (53). To establish whether this effect can be prevented by the synthetic Zot/zonulin peptide inhibitor, FZI/0, immunofluorescence studies were conducted in Caco2 cell monolayers. […] These cytoskeletal changes were blocked by the pre-incubation with 2×10^−6M FZI/0 (FIG. 5C), but not by the scrambled peptide FZI/1 (FIG. 5D). Therefore, PAR-2 AP and FZI/0 appear to bind to the identical structure on enterocytes.

Data set [1] deals with wild-type mouse intestinal tissues. Description: Intestinal TEER in wild-type mice tissues.

For the substance GGVLVQPG [FZI/0], the “binding to Caco2 cells (fluorescent particles)” value in the data set with PAR-2 (FITC-labelled FZI/0 vs media control) is “significant number of fluorescent particles”.

With SLIGRL [PAR-2 AP], the “displacement of FITC-FZI/0 binding” value in the data set on PAR-2 (FITC-FZI/0 2×10^−8M, excess of competitor (PAR-2 AP 10^−6M; 100×)) is given as “significant reduction of FZI/0 immunofluorescent staining particles”. Also, the actin cytoskeleton arrangement entry in the data set with Caco2 cell monolayers was “dissolution of stress fibers”. In addition, the “intestinal resistance (TEER) over time” value in data set [1] was “comparable drop in intestinal resistance”.
